Measurements reported in patent US8835447B2, “Method for treating androgen receptor positive cancers” (priority 2009, dated 2014).
Entries after “also recorded” stand apart in the source; their conditions may differ.

Experiments:
[1] = test system: HT1080, HeLa and DU145 cells; test: Colony formation assay, non-PCa and AR-negative PCa cells; assay type: cell-based, human; conditions: 10 μM, 7 days
Description: (§1) Cell Colony Assay: Cells were plated in 24-well plates at a density allowing 6-7 days of exponential growth before confluency. Medium and compound was replaced every 48 hours to minimize the effect of potential compound instability. After 7 days of incubation in the presence of compound, cells were fixed and stained with methylene blue, followed by extraction of the stain with 1% SDS and spectrophotometry at 650 nm. Each assay was run in triplicate and the difference between control and compound-treated wells was determined using Student's t-test.
(§2) This Example provides a description of the effect of the selected compounds on the growth of PCa cells. To test the toxicity of the identified AR inhibitors towards cells of different origins, we performed colony formation assays using a single dose of each compound (10 μM) on several PCa (LNCaP, C4-2, CWR22R and DU145) and two non-PCa (HT1080 and HeLa) cell lines (FIG. 2A). […] These compounds were not weaker inhibitors of AR transcriptional activity in CWR22R or C4-2 cells than compounds that inhibited growth of the cells.

[2] = test system: AR-expressing PCa cell lines (LNCaP, C4-2, CWR22R); test: Toxicity to AR-expressing PCa cell lines (colony formation / dose-dependent growth inhibition); assay type: cell-based, human; conditions: for toxicity towards AR-expressing PCa cell lines: colony formation, 10 μM, three AR-expressing PCa cell lines; for degree of toxicity to PCa cells (killing vs reduced growth): dose-dependent toxicity, by day 7
Description: as §1
Dose-dependent inhibition of cell growth: Cells were plated at 1×10^3 cells per well in 96-well plates. Compounds were added in a dose range from 1 to 20000 nM in two-fold increments. Each dose was tested in triplicate. Controls were 0.1% DMSO (no effect on cell viability) and 50 μM 9-aminoacridine (complete cell death). Cells were incubated for 6 days and then fixed and stained with methylene blue, followed by extraction of the stain with 1% SDS and spectrophotometry at 650 nm. The assay was run two times and, based on the results, the inhibitory concentration of compound suppressing cell growth by 50% as compared to DMSO (IC50) was calculated by the sigmoid approximation method using CalcuSyn software (Biosoft, Chembridge, UK). Confidence intervals were calculated for each sigmoid.
as §2, with “the cells. […]” for “the cells.”

[3] = test system: CWR22R cells; test: Cell cycle distribution by propidium iodide staining; assay type: cell-based, human; conditions: for changes in cell cycle distribution: increase in G1, decrease in S phase; for cells with sub-G1 DNA content (apoptotic): propidium iodide FACS
Description: Analysis of cell cycle distribution was based on staining of DNA content by propidium iodide. 10^5 cells were removed from culture dishes using trypsin, washed with PBS and resuspended in 300 μl 3% BSA in PBS, followed by addition of […] 70% ethanol. Cells were kept at −20° C. for several hours and then stained with 10 μg/ml propidium iodide in the presence of 30 μg/ml RNase A for 2 hrs at 37° C. DNA content was assessed using a FACS Calibur instrument and CellQuest software (Becton Dickinson, Franklin Lakes, N.J.).
To test this possibility, we assessed the cell cycle distribution of CWR22R cells treated with both categories of compounds. […] Therefore, different subsets of compounds inhibiting AR-dependent transcription in androgen-independent PCa cells cause either growth arrest or apoptosis in these cells. Whether a compound causes growth arrest or apoptosis is not determined by the potency of the compound as an inhibitor of AR-dependent transcription (i.e., FIG. 2B).

[4] = test system: NIH Swiss mice; test: Compound safety in mice, dose escalation; assay type: in vivo; conditions: three i.p. injections 20x, 50x, 100xIC50 in 3 day intervals
Description: Testing of compound safety in mice was done according to an IACUC-approved protocol. The experiment was performed using outbred 8 week old NIH Swiss male mice from Harlan (Indianapolis, Ind.), 4 mice per group. IC50 concentrations were used to calculate in vivo doses based on mouse weight (IC50 in vivo dose equivalent in mg/kg=IC50 in mg/ml×1000, based on the assumption that 1 g of mouse tissues have an approximate volume of 1 ml). The compounds were injected intraperitoneally (i.p.) in 25% DMSO-75% PBS starting from 20×IC50 equivalent of in vitro cytotoxic dose of compounds. […]. The control group of mice received 3 injections of 25% DMSO-75% PBS in intervals of three days. Blood biochemistry analysis was performed by BioReliance (Rockville, Md.).
Five hit compounds, representing both the ARTIS and ARTIK categories (c6, c11, c17, c52 and c85), were selected for in vivo tests based on all of the previous assays. Compound c5 was rejected due to very low microsomal stability (<5% after 1 hour incubation with rat microsomes). The toxicity of the compounds was evaluated in a dose escalation assay in which male NIH Swiss mice (n=4) received three sequential intraperitoneal (i.p.) injections of each compound delivered in 3 day intervals. […]. On the day after the last injection, half of the mice in each group were sacrificed for gross pathology examination and collection of blood for serum biochemistry assays, which include total protein, glucose, bilirubin, and creatinine levels, activity of liver enzymes, and ion concentrations. The remaining mice were sacrificed and evaluated similarly 7 days after the last compound injection. […] A minor decrease in serum glucose concentration (70-80% of control) was observed on the day after the last compound injection in almost all mice, but glucose levels were normal a week later (data not shown). Low serum glucose level might reflect of a weak transient GR-inhibitory effect of the selected compounds.

[5] = test system: C4-2 tumors; test: C4-2 xenograft model in nude mice; assay type: in vivo, mouse; conditions: 6 daily i.p. injections, 100xIC50 dose
From the text: FIGS. 6A and 6B provide data showing anti-tumor activity of the selected hits in mouse models of androgen-independent PCa. FIG. 6A provides a graphical representation of data obtained from i.p. injection of the listed compounds or DMSO vehicle into nude mice carrying subcutaneous (s.c.) C4-2 tumors. Six daily injections were given starting when tumors were around 100 mm3 in size. There were 4-5 mice per group with two tumors per mouse. Asterisks (*) and number signs (#) are placed under the means of measurement in the c6 and c11 groups respectively which are statistically different from the control group by ANOVA test (>99%) B. C52 (9 mg/kg or 18 mg/kg) or DMSO vehicle was injected into the tail vein of nude mice carrying s.c. CWR22R tumors. Five daily injections were given starting when tumors were around 40 mm3 in size. There were 10 mice per group with one tumor per mouse. Asterisks (*) are placed under the means of measurement which are statistically different from the control group by ANOVA test (>99%). Error bars in both FIGS. 6A and B—standard deviation between the size of tumors within a given treatment group.
Testing of the anti-tumor effect of compounds in mice was done according to an IACUC-approved protocol in 8 week old male athymic nude mice from Harlan (Indianapolis, Ind.). For the C4-2 xenograft model, 10^6 C4-2 cells were injected subcutaneously (s.c.) in 2 sites of each mouse in 50% matrigel (BD Biosciences, Bradford, Mass.) in PBS. Upon development of visible tumors, they were measured using digital caliper. Tumor volume was calculated according to the formula: […]. Mice were injected with compounds i.p. daily for 6 days starting on the day when at least one tumor per mouse reached 100 mm^3 in size. Five mice per group were used. For the CWR22R xenograft model, CWR22R cells were inoculated (10^5 cells per inoculum) in 50% matrigel, one site per mouse. Treatment was started when the tumor grew to a size of at least 25 mm^3. Compounds were diluted in captisol (CyDex, Lenexa, Kans.) and delivered intravenously (to reduce “first pass” liver effect) once a day for 5 days. Ten mice per group were used. Mice were monitored daily and tumors were measured every other day. Mice were euthanized according to institutional regulations when the size of tumor reached 1000 mm^3. Comparison of the tumor growth in control and treated mice was done using ANOVA test.
We evaluated the potential anti-tumor effect of the hits using C4-2 and CWR22R xenograft models of androgen-independent PCa in nude mice. Groups of C4-2 tumor-bearing mice (4-5 mice per group, each with two tumors) were given 6 daily i.p. injections of compound (100×IC50 dose) or DMSO vehicle.

[6] = Microsomal stability; assay type: in vitro ADME; conditions: 1 hour incubation with rat microsomes
Description: Five hit compounds, representing both the ARTIS and ARTIK categories (c6, c11, c17, c52 and c85), were selected for in vivo tests based on all of the previous assays. Compound c5 was rejected due to very low microsomal stability (<5% after 1 hour incubation with rat microsomes). The toxicity of the compounds was evaluated in a dose escalation assay in which male NIH Swiss mice (n=4) received three sequential intraperitoneal (i.p.) injections of each compound delivered in 3 day intervals. The first dose was 20-fold higher than the in vitro IC50 (20×IC50) for the compound in CWR22R cells recalculated based on mouse weight (see Example 1) and the second and third doses were 50×IC50 and 100×IC50, respectively. On the day after the last injection, half of the mice in each group were sacrificed for gross pathology examination and collection of blood for serum biochemistry assays, which include total protein, glucose, bilirubin, and creatinine levels, activity of liver enzymes, and ion concentrations. The remaining mice were sacrificed and evaluated similarly 7 days after the last compound injection. […] A minor decrease in serum glucose concentration (70-80% of control) was observed on the day after the last compound injection in almost all mice, but glucose levels were normal a week later (data not shown). […]

[7] = target: T1, AR LBD (Homo sapiens, UniProt P10275); conditions: cited from earlier work
T1 sequence (P10275 1-920): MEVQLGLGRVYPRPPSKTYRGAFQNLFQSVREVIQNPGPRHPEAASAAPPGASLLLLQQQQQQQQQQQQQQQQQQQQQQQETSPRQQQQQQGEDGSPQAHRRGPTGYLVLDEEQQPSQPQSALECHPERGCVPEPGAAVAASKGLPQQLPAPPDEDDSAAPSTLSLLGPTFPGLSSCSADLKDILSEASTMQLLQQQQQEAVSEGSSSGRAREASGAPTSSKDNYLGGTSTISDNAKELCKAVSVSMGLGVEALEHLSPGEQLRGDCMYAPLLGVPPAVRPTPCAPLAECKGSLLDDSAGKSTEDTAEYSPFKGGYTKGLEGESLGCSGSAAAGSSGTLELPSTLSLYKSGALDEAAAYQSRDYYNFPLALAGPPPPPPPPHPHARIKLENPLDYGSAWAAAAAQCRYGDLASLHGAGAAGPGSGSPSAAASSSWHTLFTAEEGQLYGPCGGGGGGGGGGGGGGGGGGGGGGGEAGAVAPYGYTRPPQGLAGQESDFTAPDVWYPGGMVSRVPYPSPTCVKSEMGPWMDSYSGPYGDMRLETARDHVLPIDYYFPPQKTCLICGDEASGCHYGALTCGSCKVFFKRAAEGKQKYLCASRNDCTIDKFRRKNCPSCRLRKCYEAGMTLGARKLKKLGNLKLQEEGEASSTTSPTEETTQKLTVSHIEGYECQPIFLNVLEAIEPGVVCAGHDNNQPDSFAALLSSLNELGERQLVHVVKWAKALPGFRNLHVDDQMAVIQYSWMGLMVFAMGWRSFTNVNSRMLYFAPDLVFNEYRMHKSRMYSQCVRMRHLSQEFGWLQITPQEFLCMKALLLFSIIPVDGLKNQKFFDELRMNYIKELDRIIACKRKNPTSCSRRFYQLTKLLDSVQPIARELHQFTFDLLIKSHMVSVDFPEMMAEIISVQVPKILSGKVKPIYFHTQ

microsomal stability, compound left [6] [%]	SMILES	growth of / toxicity towards non-PCa cells or AR-negative PCa cells (DU145) [1]	toxicity towards AR-expressing PCa cell lines [2]	degree of toxicity to PCa cells (killing vs reduced growth) [2]	changes in cell cycle distribution [3]	cells with sub-G1 DNA content (apoptotic) [3]	toxicity in mice (visual inspection, gross pathology) [4]	C4-2 tumor growth [5]	partial agonist activity on AR [7]	binding to the AR LBD ([7]; non-competitive antagonists)
–	Clc1ccccc1C1Nc2cccc3cccc(c23)N1 [c6]	no toxicity	different degrees of toxicity; also recorded: suppress growth of all	reduced growth as compared to untreated control cells, but not obvious cell death	cell cycle arrest	did not result in appearance of cells with sub-G1 DNA content	generally non-toxic	clear suppression of C4-2 tumor growth	–	–
< 5	O=C1N=C(Nc2cccc(Cl)c2Cl)SC1=Cc1ccco1 [c5]	no toxicity	different degrees of toxicity; also recorded: suppress growth of all	reduced growth as compared to untreated control cells, but not obvious cell death	cell cycle arrest	did not result in appearance of cells with sub-G1 DNA content	–	–	–	–
–	CNC(=O)c1ccc(N2C(=S)N(c3ccc(C#N)c(C(F)(F)F)c3)C(=O)C23CCC3)cc1F [RD162]	–	–	–	–	–	–	–	not displayed	bind with high affinity to the AR LBD
–	CC(C)(C)c1ccc(C(=O)Nc2ccc(NC(=O)c3ccc4c(c3)OCCO4)cc2)cc1 [c11]	no toxicity	different degrees of toxicity; also recorded: suppress growth of all	reduced growth as compared to untreated control cells, but not obvious cell death	cell cycle arrest	did not result in appearance of cells with sub-G1 DNA content	generally non-toxic	clear suppression of C4-2 tumor growth	–	–
